Reference: PubChem BioAssay (NCI)
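Exposure lasted 48 hours, with cells grown in 96-well plates and compounds tested at five concentrations. TGI is the concentration that stops growth completely.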

Columns and labels:
Test in all cases: DTP human tumour cell line panel, 48 h
OVCAR-3 ovarian = system: OVCAR-3 ovarian
UACC-257 melanoma = system: UACC-257 melanoma
OVCAR-4 ovarian = system: OVCAR-4 ovarian
DU-145 prostate = system: DU-145 prostate
SK-OV-3 ovarian = system: SK-OV-3 ovarian
SK-MEL-2 melanoma = system: SK-MEL-2 melanoma
RXF 393 renal = system: RXF 393 renal
SK-MEL-5 melanoma = system: SK-MEL-5 melanoma
KM12 colon = system: KM12 colon
MDA-N = system: MDA-N
K-562 leukemia = system: K-562 leukemia
SF-539 CNS = system: SF-539 CNS
SK-MEL-28 melanoma = system: SK-MEL-28 melanoma
786-0 renal = system: 786-0 renal
U251 CNS = system: U251 CNS
OVCAR-5 ovarian = system: OVCAR-5 ovarian
NCI-H460 lung = system: NCI-H460 lung
NCI/ADR-RES ovarian = system: NCI/ADR-RES ovarian
MDA-MB-435 = system: MDA-MB-435
COLO 205 colon = system: COLO 205 colon
SN12C renal = system: SN12C renal
HOP-92 NSCLC = system: HOP-92 NSCLC
HS 578T breast = system: HS 578T breast
TK-10 renal = system: TK-10 renal
PC-3 prostate = system: PC-3 prostate
ACHN renal = system: ACHN renal
NCI-H23 lung = system: NCI-H23 lung
M14 melanoma = system: M14 melanoma
UO-31 renal = system: UO-31 renal
SF-268 CNS = system: SF-268 CNS
IGROV1 ovarian = system: IGROV1 ovarian
NCI-H522 lung = system: NCI-H522 lung
HOP-62 NSCLC = system: HOP-62 NSCLC
HL-60(TB) leukemia = system: HL-60(TB) leukemia
MDA-MB-231 breast = system: MDA-MB-231 breast
HT29 colon = system: HT29 colon
SW-620 colon = system: SW-620 colon
CAKI-1 renal = system: CAKI-1 renal
SF-295 CNS = system: SF-295 CNS
BT-549 breast = system: BT-549 breast
UACC-62 melanoma = system: UACC-62 melanoma
SNB-19 CNS = system: SNB-19 CNS
MALME-3M melanoma = system: MALME-3M melanoma
HCT-116 colon = system: HCT-116 colon
SNB-75 CNS = system: SNB-75 CNS
A549 NSCLC = system: A549 NSCLC
HCC-2998 colon = system: HCC-2998 colon
MOLT-4 leukemia = system: MOLT-4 leukemia
NCI-H226 lung = system: NCI-H226 lung
HCT-15 colon = system: HCT-15 colon
LOX IMVI melanoma = system: LOX IMVI melanoma
A498 renal = system: A498 renal
CCRF-CEM leukemia = system: CCRF-CEM leukemia
OVCAR-8 ovarian = system: OVCAR-8 ovarian
EKVX NSCLC = system: EKVX NSCLC
RPMI-8226 leukemia = system: RPMI-8226 leukemia
SR leukemia = system: SR leukemia
MCF7 breast = system: MCF7 breast

CC(OC(C)(C)C)[C@H](NC(=O)OCc1ccccc1)C(=O)NC(OCc1ccccc1)[C@H]1COC(C)(C)O1 (stereo partly specified)
TGI (OVCAR-3 ovarian): > 10 µM
TGI (UACC-257 melanoma): > 10 µM
TGI (OVCAR-4 ovarian): > 10 µM
TGI (DU-145 prostate): > 100 µM
TGI (SK-OV-3 ovarian): > 10 µM
TGI (SK-MEL-2 melanoma): > 10 µM
TGI (RXF 393 renal): > 100 µM
TGI (SK-MEL-5 melanoma): > 10 µM
TGI (KM12 colon): > 10 µM
TGI (MDA-N): > 10 µM
TGI (K-562 leukemia): > 10 µM
TGI (SF-539 CNS): > 10 µM
TGI (SK-MEL-28 melanoma): > 100 µM
TGI (786-0 renal): > 10 µM
TGI (U251 CNS): > 10 µM
TGI (OVCAR-5 ovarian): > 10 µM
TGI (NCI-H460 lung): > 10 µM
TGI (NCI/ADR-RES ovarian): > 10 µM
TGI (MDA-MB-435): > 10 µM
TGI (COLO 205 colon): > 10 µM
TGI (SN12C renal): > 10 µM
TGI (HOP-92 NSCLC): > 10 µM
TGI (HS 578T breast): > 10 µM
TGI (TK-10 renal): > 10 µM
TGI (PC-3 prostate): > 10 µM
TGI (ACHN renal): > 10 µM
TGI (NCI-H23 lung): > 10 µM
TGI (M14 melanoma): > 10 µM
TGI (UO-31 renal): > 10 µM
TGI (SF-268 CNS): > 100 µM
TGI (IGROV1 ovarian): > 10 µM
TGI (NCI-H522 lung): > 10 µM
TGI (HOP-62 NSCLC): > 10 µM
TGI (HL-60(TB) leukemia): > 10 µM
TGI (MDA-MB-231 breast): > 10 µM
TGI (HT29 colon): > 10 µM
TGI (SW-620 colon): > 10 µM
TGI (CAKI-1 renal): > 10 µM
TGI (SF-295 CNS): > 10 µM
TGI (BT-549 breast): > 10 µM
TGI (UACC-62 melanoma): > 10 µM
TGI (SNB-19 CNS): > 10 µM
TGI (MALME-3M melanoma): > 10 µM
TGI (HCT-116 colon): > 100 µM
TGI (SNB-75 CNS): > 10 µM
TGI (A549 NSCLC): > 100 µM
TGI (HCC-2998 colon): > 10 µM
TGI (MOLT-4 leukemia): > 10 µM
TGI (NCI-H226 lung): > 10 µM
TGI (HCT-15 colon): > 10 µM
TGI (LOX IMVI melanoma): > 10 µM
TGI (A498 renal): > 10 µM
TGI (CCRF-CEM leukemia): > 10 µM
TGI (OVCAR-8 ovarian): > 10 µM
TGI (EKVX NSCLC): > 10 µM

CC1CC(NN)=Nc2ccccc2N1 (stereo unspecified)
TGI (OVCAR-3 ovarian): > 100 µM
TGI (UACC-257 melanoma): > 100 µM
TGI (OVCAR-4 ovarian): > 100 µM
TGI (DU-145 prostate): > 100 µM
TGI (SK-OV-3 ovarian): > 100 µM
TGI (SK-MEL-2 melanoma): > 100 µM
TGI (SK-MEL-5 melanoma): > 100 µM
TGI (KM12 colon): > 100 µM
TGI (MDA-N): > 100 µM
TGI (K-562 leukemia): > 100 µM
TGI (SK-MEL-28 melanoma): > 100 µM
TGI (786-0 renal): > 100 µM
TGI (U251 CNS): > 100 µM
TGI (OVCAR-5 ovarian): > 100 µM
TGI (NCI-H460 lung): > 100 µM
TGI (NCI/ADR-RES ovarian): > 100 µM
TGI (MDA-MB-435): > 100 µM
TGI (COLO 205 colon): > 100 µM
TGI (SN12C renal): > 100 µM
TGI (HS 578T breast): > 100 µM
TGI (TK-10 renal): > 100 µM
TGI (PC-3 prostate): > 100 µM
TGI (ACHN renal): > 100 µM
TGI (RPMI-8226 leukemia): > 100 µM
TGI (NCI-H23 lung): > 100 µM
TGI (M14 melanoma): > 100 µM
TGI (UO-31 renal): > 100 µM
TGI (SF-268 CNS): > 100 µM
TGI (IGROV1 ovarian): > 100 µM
TGI (NCI-H522 lung): > 100 µM
TGI (HOP-62 NSCLC): > 100 µM
TGI (HL-60(TB) leukemia): > 100 µM
TGI (MDA-MB-231 breast): > 100 µM
TGI (HT29 colon): > 100 µM
TGI (SW-620 colon): > 100 µM
TGI (CAKI-1 renal): > 100 µM
TGI (SF-295 CNS): > 100 µM
TGI (BT-549 breast): > 100 µM
TGI (UACC-62 melanoma): > 100 µM
TGI (SNB-19 CNS): > 100 µM
TGI (MALME-3M melanoma): > 100 µM
TGI (HCT-116 colon): > 100 µM
TGI (A549 NSCLC): > 100 µM
TGI (MOLT-4 leukemia): > 100 µM
TGI (NCI-H226 lung): > 100 µM
TGI (HCT-15 colon): > 100 µM
TGI (A498 renal): > 100 µM
TGI (CCRF-CEM leukemia): > 100 µM
TGI (OVCAR-8 ovarian): > 100 µM
TGI (EKVX NSCLC): > 100 µM

CC(C)C1(Cl)CCC2C3(C)CCCC(C)(C(=O)O)C3CC(Cl)C2(Cl)C1Cl (stereo unspecified)
TGI (UACC-257 melanoma): > 100 µM
TGI (OVCAR-4 ovarian): 84 µM
TGI (SK-MEL-2 melanoma): > 100 µM
TGI (SK-MEL-5 melanoma): 82.5 µM
TGI (KM12 colon): 37.7 µM
TGI (MDA-N): > 100 µM
TGI (SR leukemia): > 100 µM
TGI (K-562 leukemia): > 100 µM
TGI (SF-539 CNS): 46.5 µM
TGI (SK-MEL-28 melanoma): 72.1 µM
TGI (786-0 renal): > 100 µM
TGI (U251 CNS): 62.5 µM
TGI (OVCAR-5 ovarian): 94.7 µM
TGI (NCI-H460 lung): 75.2 µM
TGI (NCI/ADR-RES ovarian): > 100 µM
TGI (MDA-MB-435): 62.3 µM
TGI (COLO 205 colon): 37.2 µM
TGI (SN12C renal): > 100 µM
TGI (HOP-92 NSCLC): > 100 µM
TGI (HS 578T breast): > 100 µM
TGI (TK-10 renal): > 100 µM
TGI (PC-3 prostate): > 100 µM
TGI (ACHN renal): > 100 µM
TGI (RPMI-8226 leukemia): 62.7 µM
TGI (NCI-H23 lung): > 100 µM
TGI (M14 melanoma): > 100 µM
TGI (UO-31 renal): > 100 µM
TGI (SF-268 CNS): > 100 µM
TGI (IGROV1 ovarian): > 100 µM
TGI (NCI-H522 lung): > 100 µM
TGI (HL-60(TB) leukemia): 62.6 µM
TGI (MDA-MB-231 breast): > 100 µM
TGI (HT29 colon): 50.4 µM
TGI (SW-620 colon): > 100 µM
TGI (CAKI-1 renal): > 100 µM
TGI (BT-549 breast): > 100 µM
TGI (UACC-62 melanoma): 84.4 µM
TGI (SNB-19 CNS): > 100 µM
TGI (MALME-3M melanoma): > 100 µM
TGI (HCT-116 colon): > 100 µM
TGI (A549 NSCLC): > 100 µM
TGI (HCC-2998 colon): 81.9 µM
TGI (MOLT-4 leukemia): > 100 µM
TGI (NCI-H226 lung): 78.6 µM
TGI (HCT-15 colon): > 100 µM
TGI (LOX IMVI melanoma): > 100 µM
TGI (A498 renal): > 100 µM
TGI (CCRF-CEM leukemia): > 100 µM
TGI (OVCAR-8 ovarian): > 100 µM
TGI (EKVX NSCLC): 91.3 µM
TGI (MCF7 breast): > 100 µM
